From PMC6321136, “Combined In Vitro Studies and in Silico Target Fishing for the Evaluation of the Biological Activities of Diphylleia cymosa and Podophyllum hexandrum” (Molecules, 2018)
Read-outs that look alike come from different tables or passages of the source.

Columns and labels:
[1] = target: T1, acetylcholinesterase enzyme (Electropardus electricous type VI-S) (Electrophorus electricus, UniProt O42275); assay: AChE bioautographic assay (TLC); type: biochemical; design: key: -: not active; +: slight inhibition; ++++: strong inhibition; conditions: intensity of white bands
T1 construct: purchased Sigma-Aldrich, St. Louis, MO, USA type VI-S (catalogue number not given)
Experimental: The bioautographic assay was performed by thin layer chromatography (TLC) according to the method proposed by Marston, Kissling and Hostettman. The extracts were solubilized in methanol (Merck) at 20 mg/mL, and a portion of 10 μL of this solution was applied on a TLC plate (silica gel 60 F254, Merck, Darmstadt, Germany), which was eluted with CHCl3:MeOH (9:1). The acetylcholinesterase enzyme (Electropardus electricous type VI-S, Sigma-Aldrich, St. Louis, MO, USA) solution was prepared by diluting 1 KU of the enzyme in 30 mL of Tris/HCl buffer, pH 7.8, with the addition of 30 mg of bovine serum albumin (BSA). The enzyme solution was sprayed on the TLC plate and incubated in a humid chamber at 37 °C for 20 min. The substrate solution was prepared using 1-naphthyl acetate (2.5 mg/mL) and Fast Blue B salt (2.5 mg/mL), and sprayed on the TLC plate after the incubation period. […] The result was expressed by the intensity of the white bands observed.

Angiogenesis model = system: Angiogenesis model; design: method as in PubChem Bioassay AID 1117340; conditions: ref PubChem Bioassay AID 1117340; cited from earlier work
[2] = system: ADMET, Cytochrome P450 3A4; design: method as in PubChem Bioassay AID 885; conditions: ref PubChem Bioassay AID 885; cited from earlier work
Anti-Inflammatory model [3] = system: Anti-Inflammatory model; design: method as in PubChem Bioassay AID 457; conditions: ref PubChem Bioassay AID 457; cited from earlier work
[4] = system: Cytotoxicity, Agonist, peroxisome proliferator-activated receptor delta (PPARd); design: method as in PubChem Bioassay AID 743211; conditions: ref PubChem Bioassay AID 743211; cited from earlier work
[5] = system: Activators, heat shock response; design: method as in PubChem Bioassay AID 743228; conditions: ref PubChem Bioassay AID 743228; cited from earlier work
[6] = system: Cytotoxicity, Activators, heat shock response (counterscreen); design: method as in PubChem Bioassay AID 743209; conditions: ref PubChem Bioassay AID 743209; cited from earlier work
[7] = system: Antagonist, androgen receptor (AR); design: method as in PubChem Bioassay AID 743035; conditions: ref PubChem Bioassay AID 743035; cited from earlier work
[8] = system: beta-2 adrenergic receptor; design: method as in PubChem Bioassay AID 504459; conditions: ref PubChem Bioassay AID 504459; cited from earlier work
[9] = system: Anticancer, non-Hodgkin lymphoma; design: method as in PubChem Bioassay AID 651568; conditions: ref PubChem Bioassay AID 651568; cited from earlier work
[10] = system: Cytotoxicity, Agonist, antioxidant response element (ARE); design: method as in PubChem Bioassay AID 743203; conditions: ref PubChem Bioassay AID 743203; cited from earlier work
[11] = system: Cytotoxicity, Agonist, Histone H2A.x; design: method as in PubChem Bioassay AID 1224847; conditions: ref PubChem Bioassay AID 1224847; cited from earlier work
Anticancer, Lung Tumor = system: Anticancer, Lung Tumor; design: method as in PubChem Bioassay AID 270; conditions: ref PubChem Bioassay AID 270; cited from earlier work
Anti-Inflammatory model [12] = system: Anti-Inflammatory model; design: method as in PubChem Bioassay AID 1309; conditions: ref PubChem Bioassay AID 1309; cited from earlier work
Anticancer, Yes1 kinase = system: Anticancer, Yes1 kinase; design: method as in PubChem Bioassay AID 686947; conditions: ref PubChem Bioassay AID 686947; cited from earlier work
Anticancer, Sarcoma = system: Anticancer, Sarcoma; design: method as in PubChem Bioassay AID 292; conditions: ref PubChem Bioassay AID 292; cited from earlier work
[13] = system: Agonist, endoplasmic reticulum stress response; design: method as in PubChem Bioassay AID 1159519; conditions: ref PubChem Bioassay AID 1159519; cited from earlier work
[14] = system: Cytotoxicity, Agonist, AP-1; design: method as in PubChem Bioassay AID 1159525; conditions: ref PubChem Bioassay AID 1159525; cited from earlier work
Cytotoxicity = system: Cytotoxicity; design: method as in PubChem Bioassay AID 624476; conditions: ref PubChem Bioassay AID 624476; cited from earlier work
[15] = design: method as in Dar et al. [63]; conditions: ref Dar et al. [63]; cited from earlier work
[16] = system: 1-acylglycerol-3-phosphate O-acyltransferase ABHD5; design: method as in PubChem Bioassay AID 493027; conditions: ref PubChem Bioassay AID 493027; cited from earlier work
[17] = system: Antagonist, constitutive androstane receptor (CAR); design: method as in PubChem Bioassay AID 1224838; conditions: ref PubChem Bioassay AID 1224838; cited from earlier work
[18] = system: Enterohemorrhagic E. coli ATCC 43895-EHEC; assay: Antibacterial microdilution assay; type: cell-based, Escherichia coli
[19] = system: Antagonist, androgen receptor (AR); design: method as in PubChem Bioassay AID 1259247; conditions: ref PubChem Bioassay AID 1259247; cited from earlier work
[20] = system: Antagonist, vitamin D receptor (VDR); design: method as in PubChem Bioassay AID 743242; conditions: ref PubChem Bioassay AID 743242; cited from earlier work

T1 sequence (O42275 24-633): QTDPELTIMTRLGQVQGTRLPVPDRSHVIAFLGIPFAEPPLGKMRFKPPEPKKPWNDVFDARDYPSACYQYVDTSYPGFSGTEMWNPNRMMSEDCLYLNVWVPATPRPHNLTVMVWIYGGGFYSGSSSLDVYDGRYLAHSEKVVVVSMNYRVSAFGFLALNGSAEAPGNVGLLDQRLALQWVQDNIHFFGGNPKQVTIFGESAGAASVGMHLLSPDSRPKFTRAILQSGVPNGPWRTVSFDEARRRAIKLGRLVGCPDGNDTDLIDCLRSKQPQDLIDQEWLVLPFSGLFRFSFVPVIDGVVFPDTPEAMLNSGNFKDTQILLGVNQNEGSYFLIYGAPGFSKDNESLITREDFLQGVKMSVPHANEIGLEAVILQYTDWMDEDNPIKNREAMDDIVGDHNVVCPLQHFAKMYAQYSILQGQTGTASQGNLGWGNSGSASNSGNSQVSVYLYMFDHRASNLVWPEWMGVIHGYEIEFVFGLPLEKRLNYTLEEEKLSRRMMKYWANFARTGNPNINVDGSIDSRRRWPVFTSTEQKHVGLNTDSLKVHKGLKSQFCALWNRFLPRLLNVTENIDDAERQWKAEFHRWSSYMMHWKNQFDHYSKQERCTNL

For `COc1cc([C@@H]2c3cc4c(cc3[C@H](O)[C@H]3COC(=O)[C@H]23)OCO4)cc(OC)c1OC` [Podophyllotoxin, podophyllotoxin], the “Inhibition of AChE TLC” value [1] is listed as “-”, the “Exper. Activity” value (Angiogenesis model) is listed as “Active” and the “Exper. Activity” value [2] is listed as “Inactive”. For the same compound, the “Exper. Activity” value (Anti-Inflammatory model [3]) was “Inactive”, the “Exper. Activity” value [4] was “Inactive” and the “Exper. Activity” value [5] was “Inactive”. For the same compound, the “Exper. Activity” value [6] was “Inactive”, the “Exper. Activity” value [7] was “Active” and the “Exper. Activity” value [8] was “Inactive”. For the same compound, the “Exper. Activity” value [9] was “Inactive”, the “Exper. Activity” value [10] was “Inactive” and the “Exper. Activity” value [11] was “Inactive”. The “Exper. Activity” value (Anticancer, Lung Tumor) was “Inactive”, the “Exper. Activity” value (Anti-Inflammatory model [12]) was “Active” and the “Exper. Activity” value (Anticancer, Yes1 kinase) was “Inactive”. For the same compound, the “Exper. Activity” value (Anticancer, Sarcoma) was “Active”, the “Exper. Activity” value [13] was “Inactive” and the “Exper. Activity” value [14] was “Inactive”. For the same compound, the “Exper. Activity” value (Cytotoxicity) was “Inactive”, the “IC50 TBARS lipid peroxidation” value [15] was “higher than 250 μg/mL” and the “Exper. Activity” value [16] was “Inactive”. For the same compound, the “Exper. Activity” value [17] was “Active”, the “EHEC E. coli Mean ± SD (percentage of inhibition of microbial growth)” value ([18]; 250 µg/mL) was “No antibacterial activity” and the inhibition at 250 µg/mL ([18]; Escherichia coli, ATCC43895, read-out: EHEC E. coli Mean ± SD (percentage of inhibition of microbial growth)) was 33 ± 7.76%. For the same compound, the “Exper. Activity” value [19] was “Inactive” and the “Exper. Activity” value [20] was “Active”.
